Measurements from US5250572A (priority 1992, dated 1993).
pIC50: −log10 of the molar value.

What was measured:
serotonin uptake = details: words, cited from earlier work
5HT1A = target: T1, 5HT1A (Rattus norvegicus, UniProt P19327); assay: Inhibition of 3H-8-hydroxy-2-(di-n-propylamino)tetralin binding to 5HT1A receptor; parameters: species or system male Sprague-Dawley); details: rat brain membranes, 25° C., 30 min, pH 7.4
T1 construct: brain tissues from male Sprague-Dawley rats was homogenized; from tissue; host or cells: brain of male Sprague-Dawley rats, crude synaptosomal membranes
T1 sequence (P19327 1-422): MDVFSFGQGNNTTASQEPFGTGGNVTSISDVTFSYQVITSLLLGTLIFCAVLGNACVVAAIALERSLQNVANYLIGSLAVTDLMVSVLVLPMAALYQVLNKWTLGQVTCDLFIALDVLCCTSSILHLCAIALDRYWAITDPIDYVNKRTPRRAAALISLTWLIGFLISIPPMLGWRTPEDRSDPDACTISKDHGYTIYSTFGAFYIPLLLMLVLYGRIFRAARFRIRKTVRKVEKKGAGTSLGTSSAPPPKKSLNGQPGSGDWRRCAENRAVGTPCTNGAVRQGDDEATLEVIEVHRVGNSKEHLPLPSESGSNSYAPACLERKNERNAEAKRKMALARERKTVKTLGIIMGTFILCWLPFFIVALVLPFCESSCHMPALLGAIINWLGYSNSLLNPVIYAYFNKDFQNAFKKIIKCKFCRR
Protocol: (§1) This general procedure is set forth by Wong et al., Life Sciences, 46, 231 (1990).
(§2) Bovine choroid plexus and brain tissues from male Sprague-Dawley rats was homogenized in 9 volumes of 0.32 M sucrose. After centrifugation at 1000×g for 10 minutes and then at 17,000×g for 20 minutes, a crude synaptosomal fraction was sedimented. The pellet was suspended in 100 volumes of 50 mM Tris-HCI, pH 7.4, incubated at 37° C. for 10 minutes, and centrifuged at 50,000×g for 10 minutes. The process was repeated, and the final pellet of membrane was suspended in ice-chilled 50 mM Tris-HCI buffer, pH 7.4.
(§3) Binding of ^3 H-mesulergine to the 5HT1C receptor and other serotonergic ^3 H-ligands to subtypes of 5HT receptors (^3 H-8-hydroxy-2-(di-n-propylamino)tetralin to 5HT1A; ^3 H-serotonin to 5HT1B and 5HT1D; ^3 H-ketanserin to 5HT2; and ^3 H-1-methyl-N-(8-methyl-8-azabicyclo[3.2.1]oct-3-yl)-1H-indazaole-3-carboxamide to 5HT3 receptors) was performed according to the method described in the above reference. Briefly, membranes isolated from bovine choroid plexus (for 5HT1C) or rat brain were incubated at 25° C. for 30 minutes in 2 ml of 50 mM Tris-HCl, pH 7.4; 10 mM pargyline, 0.6 mM ascorbic acid; 5 mM CaCl2; and 2 nM ^3 H-mesulergine or other tritiated ligand. […] Radioactivity was measured with a liquid scintillation spectrometer. […]

5HT1B = target: T2, 5HT1B (Rattus norvegicus, UniProt P28564); assay: Inhibition of 3H-serotonin binding to 5HT1B receptor; parameters: species or system male Sprague-Dawley); details: rat brain membranes, 25° C., 30 min, pH 7.4
T2 construct: brain tissues from male Sprague-Dawley rats was homogenized; from tissue; host or cells: brain of male Sprague-Dawley rats, crude synaptosomal membranes
Protocol: as §1, §2, §3

5HT1C receptor = target: T3, 5HT1C receptor (Bos taurus, UniProt A0AAA9SBU1); assay: Inhibition of 3H-mesulergine binding to 5HT1C receptor; details: read-out: Inhibition of Radioligand Binding to 5HT Receptor, 1C (IC50); bovine choroid plexus membranes, 2 nM 3H-mesulergine, 25° C., 30 min, pH 7.4; mean of three experiments
T3 sequence (A0AAA9SBU1 33-457): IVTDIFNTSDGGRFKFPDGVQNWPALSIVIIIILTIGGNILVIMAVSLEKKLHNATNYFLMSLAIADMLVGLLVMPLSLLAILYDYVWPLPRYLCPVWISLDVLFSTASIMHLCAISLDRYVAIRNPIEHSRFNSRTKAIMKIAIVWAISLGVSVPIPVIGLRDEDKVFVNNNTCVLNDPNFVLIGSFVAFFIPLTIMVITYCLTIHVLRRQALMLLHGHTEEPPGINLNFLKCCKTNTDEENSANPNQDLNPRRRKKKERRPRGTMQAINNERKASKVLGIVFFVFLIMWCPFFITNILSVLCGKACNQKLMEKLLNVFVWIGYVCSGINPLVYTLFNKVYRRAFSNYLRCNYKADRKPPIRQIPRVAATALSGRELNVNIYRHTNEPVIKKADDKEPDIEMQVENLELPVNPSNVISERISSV
Protocol: as §1, §2, §3

5HT1D = assay: Inhibition of 3H-serotonin binding to 5HT1D receptor; parameters: species or system male Sprague-Dawley); details: read-out: Inhibition of Radioligand Binding to 5HT Receptor, 1D (IC50), rat brain membranes, 25° C., 30 min, pH 7.4
Protocol: as §1, §2, §3

5HT3 receptors = target: T4, 5HT3 receptors (Rattus norvegicus, UniProt P35563); assay: Inhibition of 3H-1-methyl-N-(8-methyl-8-azabicyclo[3.2.1]oct-3-yl)-1H-indazaole-3-carboxamide binding to 5HT3 receptors; parameters: species or system male Sprague-Dawley); details: rat brain membranes, 25° C., 30 min, pH 7.4
T4 construct: brain tissues from male Sprague-Dawley rats was homogenized; from tissue; host or cells: brain of male Sprague-Dawley rats, crude synaptosomal membranes
T4 sequence (P35563 24-483): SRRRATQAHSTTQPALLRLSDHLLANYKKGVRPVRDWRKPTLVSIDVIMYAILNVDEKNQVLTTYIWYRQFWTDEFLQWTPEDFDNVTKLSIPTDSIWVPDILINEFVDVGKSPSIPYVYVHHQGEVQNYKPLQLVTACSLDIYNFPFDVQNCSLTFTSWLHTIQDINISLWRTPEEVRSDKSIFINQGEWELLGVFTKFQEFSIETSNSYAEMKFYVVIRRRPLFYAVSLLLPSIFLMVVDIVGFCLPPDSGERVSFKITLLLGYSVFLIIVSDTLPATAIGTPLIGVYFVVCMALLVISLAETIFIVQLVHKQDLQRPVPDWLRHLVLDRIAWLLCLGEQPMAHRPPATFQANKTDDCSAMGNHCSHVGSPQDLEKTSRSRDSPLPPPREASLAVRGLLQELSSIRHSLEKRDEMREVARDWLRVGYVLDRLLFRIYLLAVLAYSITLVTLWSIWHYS
Protocol: as §1, §2, §3

[1] = tested on: metabolism of concurrently administered drugs such as barbiturates or tricyclic antidepressants
[2] = Toxicity and therapeutic index (statements in words)

T2 sequence (P28564 whole entry): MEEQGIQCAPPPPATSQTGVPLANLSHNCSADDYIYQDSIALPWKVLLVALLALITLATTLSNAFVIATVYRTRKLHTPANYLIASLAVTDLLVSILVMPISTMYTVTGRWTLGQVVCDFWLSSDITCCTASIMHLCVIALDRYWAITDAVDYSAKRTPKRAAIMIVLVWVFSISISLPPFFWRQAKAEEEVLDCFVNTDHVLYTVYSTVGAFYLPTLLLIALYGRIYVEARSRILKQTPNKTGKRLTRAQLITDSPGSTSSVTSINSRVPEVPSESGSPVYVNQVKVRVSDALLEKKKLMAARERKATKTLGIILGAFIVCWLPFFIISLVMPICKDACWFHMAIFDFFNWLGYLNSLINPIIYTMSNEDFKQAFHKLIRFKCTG

NCC[C@H](Oc1ccc(C(F)(F)F)cc1)c1ccccc1 [(S)-norfluoxetine]
activity as serotonin uptake inhibitor (serotonin uptake; relative to (R)-antipode, from copending application Ser. No. 07/486,478): substantially more active than its (R)-antipode

NCCC(Oc1ccc(C(F)(F)F)cc1)c1ccccc1 (racemic) [Norfluoxetine, 3-(4-trifluoromethylphenoxy)-3-phenylpropylamine]
serotonin / monoamine uptake blockade (serotonin uptake; background, known from earlier patents): block monoamine uptake, especially serotonin

NCC[C@@H](Oc1ccc(C(F)(F)F)cc1)c1ccccc1 [(R)-Norfluoxetine]
pIC50 (5HT1A): 4.66 | pIC50 (5HT1B): 4.62 | pIC50 (5HT1C receptor): 6.33 | pIC50 (5HT1D): 4.00 | pIC50 (5HT3 receptors): 4.92 | effect on metabolism of concurrently administered drugs [1]: little effect on metabolism of concurrently administered drugs | toxicity [2]: relatively non-toxic
